pIC50: −log10 of the molar value.
Tests used:
[1] = Stability in rat liver microsomes; assay type: in vitro ADME; conditions: rat liver microsomes 0.5 mg protein/mL, 1 μM test substance, β-NADPH 1 mM, 37° C.; for half-life at 1 μM: read-out: Rat t1/2
Description: (§1) Experimental Example 2: Evaluation of Stability of Compounds Disclosed Herein in Liver Microsomes
(§2) Composition of experimental incubation system:
(§3) An appropriate amount of the compound was precisely weighed out and dissolved in DMSO to prepare a 10.0 mM stock solution. The 10.0 mM stock solution was diluted with DMSO to 1.0 mM, and then diluted with phosphate buffer (containing 3 mM MgCl2) to prepare a 10 μM test substance working solution for later use (DMSO content in the reaction system: 0.1%).
(§4) An appropriate amount of β-NADPH was precisely weighed out and then prepared into a 5 mM β-NADPH working solution using phosphate buffer (containing 3 mM MgCl2) for later use.
(§5) (1) The liver microsomes (20 mg protein/mL) were taken out from a −80° C. freezer and pre-incubated on a 37° C. water bath thermostatic oscillator for 3 min to thaw for later use.
(§6) (2) A mixed solution of the incubation system (without β-NADPH) was prepared according to “composition of experimental incubation system” described above, and pre-incubated on a 37° C. water bath thermostatic oscillator for 2 min.
(§7) (3) Control group (without β-NADPH): 10 μL of phosphate buffer (containing 3 mM MgCl2) and 40 μL of the mixed solution of the incubation system in step (2) were taken and mixed, and the mixture was vortexed for 30 s and mixed well, resulting in a total reaction volume of 50 μL; the sample was duplicated. The mixture was placed on a 37° C. water bath thermostatic oscillator for incubation, and timing was started, with termination time points set at 0 min and 60 min.
(§8) (4) Sample group: 10 μL of the β-NADPH solution (5 mM) and 40 μL of the mixed solution in step (2) were taken and mixed, resulting in a total reaction volume of 50 μL; the mixture was vortexed for 30 s and mixed well; the sample was duplicated. The mixture was placed on a 37° C. water bath thermostatic oscillator for incubation, and timing was started, with termination time points set at 0 min, 5 min, 10 min, 20 min, 30 min, and 60 min.
(§9) (5) The mixture was vortexed for 5 min and then centrifuged at 4000 rpm for 10 min.
(§10) (6) 50 μL of the supernatant was taken and added to 150 μL of water, and the resulting mixture was vortexed and mixed well before LC/MS/MS analysis.
(§11) The half-life (t1/2) and clearance rate (CL) were calculated using the following first-order kinetic formula
(§12) Notes: k denotes the slope of the logarithm of the remaining amount of a compound vs. time, and Vd denotes apparent volume of distribution.

[2] = biological target: T1, hERG potassium ion channel (Homo sapiens, UniProt Q12809); assay: Inhibition of hERG potassium ion channel, whole-cell patch clamp in HEK-293 cells; assay type: cell-based; conditions: HEK-293 cells stably expressing hERG, tail current, room temperature
T1 construct: expressed in transfected cells
Description: Experimental Example 5: Inhibition of hERG Potassium Ion Channel by Compounds
1.1. An HEK-293 cell line stably expressing the hERG potassium channel was cultured at 37° C. with 5% carbon dioxide in DMEM medium containing 10% fetal bovine serum and 0.8 mg/mL G418. The cell density must not exceed 80%.
1.2. Before patch-clamp testing, cells were dissociated with TrypLE™ Express, and 4×10^3 cells were applied to a coverslip. After 18 h, testing was performed.
2.1. Blank control: DMSO stock solution.
2.2. Positive control: An appropriate amount of cisapride was weighed out and prepared into a 10 mM stock solution using dimethyl sulfoxide (DMSO). The stock solution was aliquoted, and the aliquots were stored at −20° C.
2.3. Compound: An appropriate amount of the compound was weighed out, and the required volume of DMSO was calculated using the formula DMSO volume=actual amount×purity (content)/(molecular weight×theoretical concentration), and measured out using a pipette. The compound that had been weighed out was dissolved in the DMSO that had been measured out using a pipette. Meanwhile, the mass of the DMSO was measured. The actual stock solution concentration was calculated based on the amount of DMSO finally used.
Before hERG channel current testing, the blank control stock solution was diluted with an appropriate amount of extracellular liquid to prepare a working solution. The positive control stock solution and the compound stock solution were diluted with an appropriate amount of extracellular liquid to prepare working solutions. […]
Recording electrodes were prepared from capillary glass tubes using a microelectrode puller. […] Under an inverted microscope, a microelectrode manipulator was used to immerse the electrode in extracellular liquid, and the electrode resistance (Rpip) was recorded. […] Then, slow capacitance compensation was performed, and experimental parameters such as membrane capacitance (Cm) and series resistance (Rs) were recorded. […]

[3] = Stability in canine liver microsomes; assay type: in vitro ADME; conditions: canine liver microsomes 0.5 mg protein/mL, 1 μM test substance, β-NADPH 1 mM, 37° C.; for microsomal CLint at 1 μM / half-life at 1 μM: dog; for half-life at 1 μM: read-out: Canine t1/2
Description: as §1, §2, §3, §4, §5, §6, §7, §8, §9, §10, §11, §12

T1 sequence (Q12809 whole entry): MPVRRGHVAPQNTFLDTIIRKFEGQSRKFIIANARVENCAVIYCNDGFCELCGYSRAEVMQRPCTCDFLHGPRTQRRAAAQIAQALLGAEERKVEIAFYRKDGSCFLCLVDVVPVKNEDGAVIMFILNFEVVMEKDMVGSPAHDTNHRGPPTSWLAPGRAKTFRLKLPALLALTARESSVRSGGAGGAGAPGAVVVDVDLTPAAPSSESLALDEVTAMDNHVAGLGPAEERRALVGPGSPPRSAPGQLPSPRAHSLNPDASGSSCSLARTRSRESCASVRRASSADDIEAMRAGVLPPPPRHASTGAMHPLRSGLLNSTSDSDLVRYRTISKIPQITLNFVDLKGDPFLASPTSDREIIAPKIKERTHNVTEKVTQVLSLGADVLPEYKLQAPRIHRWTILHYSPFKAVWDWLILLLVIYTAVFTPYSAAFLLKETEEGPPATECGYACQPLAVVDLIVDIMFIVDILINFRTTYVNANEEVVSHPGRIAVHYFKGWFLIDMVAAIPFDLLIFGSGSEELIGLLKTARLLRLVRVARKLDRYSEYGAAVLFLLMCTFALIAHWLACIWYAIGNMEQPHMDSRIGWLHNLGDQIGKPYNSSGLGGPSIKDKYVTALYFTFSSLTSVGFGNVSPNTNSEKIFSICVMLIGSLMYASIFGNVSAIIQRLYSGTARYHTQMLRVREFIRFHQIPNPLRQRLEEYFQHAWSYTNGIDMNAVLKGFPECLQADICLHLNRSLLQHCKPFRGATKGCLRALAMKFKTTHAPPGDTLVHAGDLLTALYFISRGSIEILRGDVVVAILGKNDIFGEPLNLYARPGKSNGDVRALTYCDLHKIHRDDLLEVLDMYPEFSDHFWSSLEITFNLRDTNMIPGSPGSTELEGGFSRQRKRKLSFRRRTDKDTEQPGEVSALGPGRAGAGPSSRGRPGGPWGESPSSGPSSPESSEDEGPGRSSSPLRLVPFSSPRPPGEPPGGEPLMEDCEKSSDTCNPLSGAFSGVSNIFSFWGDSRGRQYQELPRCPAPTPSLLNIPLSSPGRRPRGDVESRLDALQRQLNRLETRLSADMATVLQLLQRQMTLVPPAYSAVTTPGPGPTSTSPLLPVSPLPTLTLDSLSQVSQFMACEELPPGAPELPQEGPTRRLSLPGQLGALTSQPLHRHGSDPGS

Rat t1/2 [1]	Canine t1/2 [3]	microsomal CLint at 1 μM [1] [µL/min/mg]	half-life at 1 μM [1] [h]	microsomal CLint at 1 μM [3] [µL/min/mg]	half-life at 1 μM [3] [h]	SMILES	pIC50 [2]
→∞	→∞	–	–	–	–	C#Cc1ccc(-c2nnc(N[C@@H]3CCCN(C)C3)c(=O)n2C)c(O)c1 [Compound 23, (R)-3-(4-ethynyl-2-hydoxyphenyl)-4-methyl-6-((1-methylpiperidin-3-yl)amino)-1,2,4-triazin-5(4H)-one]	< 5.00
–	–	6.8	3.4	1.4	16.5	C#Cc1ccc(-c2nnc(N[C@@H]3CCCN(CCO)C3)cc2C2CC2)c(O)c1 [Compound 45, (R)-2-(4-Cyclopropyl-6-((1-(2-hydroxyethyl)piperidin-3-yl)amino)pyridazin-3-yl)-5-ethynylphenol]	–
–	–	3	7.7	5	4.62	C#Cc1ccc(-c2nnc(N[C@@H]3CCCN(C)C3)cc2C(C)C)c(O)c1 [Compound 81, (R)-5-ethynyl-2-(4-isopropyl-6-((1-methylpiperidin-3-yl)amino)pyridazin-3-yl)phenol]	< 5.00
–	–	8.2	2.82	8.4	2.75	C#Cc1ccc(-c2nnc(N[C@@H]3CCCN(C)C3)c(C#N)c2C)c(O)c1 [Compound 103, (R)-6-(4-ethynyl-2-hydroxyphenyl)-5-methyl-3-((1-methylpiperidin-3-yl)amino)pyridazine-4-carbonitrile]	< 5.00

Reference: patent publication US20260167637A1, “NLRP3 INFLAMMASOME INHIBITOR AND USE THEREOF” (TransThera Sciences (Nanjing), Inc., priority 2022, published 2026)
